Data from ChEMBL document CHEMBL1157539, “Thousands of chemical starting points for antimalarial lead identification” (Nature, 2010).

What follows are compounds tested on Plasmodium falciparum (assay: GSK_TCMDC: Inhibition of Plasmodium falciparum 3D7 in whole erythrocytes, using parasite LDH activity as an index of growth.). Conditions: Plasmodium falciparum, 3D7.
Assay type: functional, organism-based
For `Cc1ccc2[nH]c(/C=C/c3cccc4cc[nH]c34)nc2c1`, the XC50 was 1180 nM. `O=C(Nc1ccc2nc3n(c(=O)c2c1)CCCCC3)C(=O)N1CCC(Cc2ccccc2)CC1` gave an XC50 of 757 nM. For `C=CCNC(=O)CCCNC(=N)N`, the XC50 was 717 nM. Work on `c1cc(CN2CCCCC2)cc(-c2csc(-c3nc4ccccc4[nH]3)c2)c1` yielded an XC50 of 848 nM. `COc1ccc(Nc2nccc(-c3ccc4ccnc(NCCCCN)c4c3)n2)cc1` was tested, and the XC50 was 750 nM. `CCOC(=O)c1ccc(NC(=O)N[C@H]2CCN(CCCCCNC(=O)/C=C/c3ccc(Cl)c(Cl)c3)C2)cc1` was tested, and the XC50 was 735 nM. `COC(=O)c1cccc(NC(=O)NCCNc2ccnc(Nc3ccc(F)cc3)n2)c1` showed an XC50 of 837 nM. `CC1(C)N=C(N)N=C(N)N1c1ccc(Cl)c(Cl)c1` was tested, and the XC50 was 3.2 nM. In the case of `CN(C)CCCOc1ccc(CCCCc2ccc(Cl)cc2C(=O)c2ccccc2)cc1`, the XC50 was 1030 nM. Compound `CN(C)c1ccc(NC2=NC(N)=NC(C)(C)N2)cc1` has an XC50 of 223 nM. For `O=C(/C=C/c1ccc(C(F)(F)F)cc1)NCCCCCN1CCC(c2c[nH]c3ccccc23)CC1`, the XC50 was 683 nM. Work on `O=C(Nc1ccc2c(c1)CCCN2S(=O)(=O)c1cccs1)c1cc([N+](=O)[O-])ccc1Cl` yielded an XC50 of 845 nM. `COc1ccc2nccc([C@@H](O)CN3CCC(NCCOc4ccccc4C#N)CC3)c2c1` was tested, and the XC50 was 398 nM. `O=C(C=Cc1ccc(Cl)c(Cl)c1)NCCCCCN1CCC(c2n[nH]c3ccccc23)CC1` was tested, and the XC50 was 638 nM. In the case of `COc1ccc2nccc(N3CCC(SCCNS(=O)(=O)c4ccc5c(c4)OCCO5)C3)c2n1` (stereo not given), the XC50 was 981 nM. In the case of `O=C1CCCN1CCCNCc1ccc(-c2ccc(-c3nc4cc(C(F)(F)F)ccc4[nH]3)cc2)cc1`, the XC50 was 583 nM. For `Oc1ccc(CCCNc2nc(NCc3ccccc3-c3ccccc3)nc(N3CCNCC3)n2)cc1`, the XC50 was 713 nM. Compound `Nc1nc(N)c2c(ccc3c2cnn3Cc2cccnc2)n1` has an XC50 of 48.1 nM. For `OCc1ccc(-c2cncc(Nc3ccc(F)c(Cl)c3)c2)cc1`, the XC50 was 88.5 nM. In the case of `Oc1ccc(CCCNc2nc(NCc3ccccc3-c3ccccc3)nc(NC3CCNCC3)n2)cc1`, the XC50 was 864 nM. Compound `COc1ccc(CCNCCCCCCNCCCc2ccc(Cl)cc2)cc1OC` has an XC50 of 951 nM. In the case of `CN1CCC(Oc2ccc(CN3CC[C@H](NC(=O)c4ccc(Cl)c(Cl)c4)C3)c3ccccc23)C1` (stereo not given in full), the XC50 was 876 nM. With `O=C(/C=C/c1ccc(Cl)c(Cl)c1)NCCCCCCN1CCCN(C(=O)Nc2ccc(Cl)c(Cl)c2)CC1` the XC50 was 666 nM. `CCc1ccc(C2CCN(CCCCNC(=O)c3ccc(NC(=O)c4ccc(Cl)cc4)cc3)CC2)c(OC)c1` was tested, and the XC50 was 785 nM. `CC(=O)Nc1ccc(S(=O)(=O)Nc2ccc(Nc3nc(C)cc(N4CCCCC4)n3)cc2)cc1` showed an XC50 of 779 nM. Compound `Cc1ccc(C(=O)Nc2cccc(CN3CCCN(Cc4ccc(O)cc4)CC3)c2)s1` has an XC50 of 1000 nM. `CC(C)(C)c1ccc(O)c(CNC2CCCCC2)c1` was tested, and the XC50 was 264 nM. In the case of `Cc1cnc(CNCc2ccc(S(=O)(=O)Nc3ccc(Oc4cccc(Cl)c4)cc3)cc2)cn1`, the XC50 was 766 nM. Work on `CN(C)c1ccc(-c2csc(C(=O)NCC3CCN(CC4CCCCC4)C3)c2)cc1` (stereo not given) yielded an XC50 of 1140 nM. `COCCN1CCN(Cc2ccc(-c3ccc(-c4nc5cccc(C)c5[nH]4)s3)cc2)CC1` gave an XC50 of 859 nM. With `COc1cc(Cc2cnc(N)nc2N)cc(OC(C)C)c1OC` the XC50 was 1040 nM. With `COc1ccc(C(=O)N2CCC(CN3CCOC(c4ccccc4)(c4ccccc4)C3)CC2)cc1` the XC50 was 171 nM. In the case of `Cc1cc(CN2CCC(C(=O)Nc3ccc(-c4nc5ccccc5[nH]4)cc3)CC2)oc1C`, the XC50 was 1450 nM. For `Cc1cc(NC(=O)c2ccco2)ccc1OC1CCN(Cc2ccc(F)cc2)CC1`, the XC50 was 588 nM. `Cc1cccc2nc(-c3ccc(-c4ccc(C(=O)NCCN5CCCC5)cc4)cc3)[nH]c12` gave an XC50 of 519 nM. `CC(C)(C(=O)Nc1ccc(N2CCC3(CCCN(CC4CC4)C3)CC2)c(Cl)c1)c1cccc(C(F)(F)F)c1` showed an XC50 of 2000 nM. `COc1cccc(CN2CCN(C(c3ccccc3)c3ccccc3)CC2)c1O` was tested, and the XC50 was 781 nM. `Cc1cc2nc(-c3cccc(C(=O)NC4CCN(Cc5ccccc5)CC4)c3)[nH]c2cc1C` gave an XC50 of 828 nM. With `Cc1cccc(C)c1/N=C1\NC(=S)N(c2cccc(Cl)c2)C12CCC(C(C)(C)C)CC2` (stereo not given) the XC50 was 760 nM. `CC(=O)CCc1ccc(OCCN(Cc2ccccc2C(F)(F)F)c2ccc(C#N)c(C(F)(F)F)c2)cc1` gave an XC50 of 267 nM. In the case of `CC(C)CSc1cc(C(=O)Nc2cc(Cl)ccc2O)ccn1`, the XC50 was 670 nM. For `Cc1nc(-c2cccc(Nc3nccc(NCC(O)c4ccccc4C(F)(F)F)n3)c2)cs1` (stereo not given), the XC50 was 834 nM. `COc1ccccc1C1CCN(C2CCC(NC(=O)/C=C/c3cc(C(F)(F)F)ccc3F)CC2)CC1` (stereo not given) gave an XC50 of 868 nM. `Cn1c(NC(=O)C2CCC(CNC(=O)c3ccc(O)c(-c4ccc(Cl)c(Cl)c4)c3)CC2)nc2ccccc21` (stereo not given) was tested, and the XC50 was 654 nM. Work on `CCOc1ccc2c(=NN=Cc3cccc(OC)c3OC)cc(C)[nH]c2c1` yielded an XC50 of 898 nM. `Cc1ccc(C2=NNC3(S2)C(=O)N(C)c2ccccc23)cc1` (stereo not given) was tested, and the XC50 was 1020 nM. For `Cc1ccc2nc3c(cc(C(=O)NCc4ccccc4)c(=N)n3CCCn3ccnc3)c(=O)n2c1`, the XC50 was 993 nM. In the case of `CC(O)C1CCCCN1C(=O)c1ccc(-c2ccc(-c3nc4cc(F)ccc4[nH]3)cc2)cc1` (stereo not given), the XC50 was 435 nM. In the case of `O=C(N/C(=C/c1cccc([N+](=O)[O-])c1)c1nc2ccccc2[nH]1)c1cccc(Br)c1`, the XC50 was 616 nM. Compound `C=Cc1ccccc1C1(O)CCN(CCCCNC(=O)c2ccc(-c3ccc(C#N)cc3)cc2)CC1` has an XC50 of 518 nM. `Cc1cc(N[C@@H](Cc2ccccc2)C(=O)NCc2cccc(F)c2)nc(NCCc2cccs2)n1` gave an XC50 of 622 nM. With `COc1cc(NC(=O)c2ccc3c(=O)n(Cc4ccccc4)c(=S)[nH]c3c2)cc(OC)c1OC` the XC50 was 743 nM. `COc1ccc(C(=O)C2CCN(CCCCNC(=O)c3ccc(NC(=O)c4cc(Cl)cc(Cl)c4)cc3)CC2)cc1` showed an XC50 of 173 nM. `Cc1ccc(F)cc1S(=O)(=O)Nc1cccc(CCN2CCC(N3CCCCC3)CC2)c1` was tested, and the XC50 was 1120 nM. Compound `O=C(/C=C/c1ccccc1F)NC1CCC(CCN2CCc3ccc(-c4cccnc4)cc3CC2)CC1` (stereo not given) has an XC50 of 900 nM. Compound `Nc1[nH]c2ccccc2c(=O)c1-c1nc2ccccc2s1` has an XC50 of 303 nM. `COc1ccc(CN2CCN(C(=O)c3cccs3)CC2)c(O)c1` showed an XC50 of 838 nM. `COc1cc(C(F)(F)F)cc2[nH]c(CNCCCNc3nc4ccccc4[nH]3)cc12` showed an XC50 of 280 nM. Work on `CCNc1cc(C(=O)N[C@@H](Cc2ccccc2)[C@H](O)CNC(C)(C)Cc2cccc(OC)c2)cc(N2CCCC2=O)c1` yielded an XC50 of 707 nM. With `COc1cccc2c(NN=Cc3ccccc3Cl)cc(C)nc12` the XC50 was 211 nM. Work on `CCc1cc(I)c2c(c1)C(NCCCNc1cc(=O)c3ccccc3[nH]1)CCN2` (stereo not given) yielded an XC50 of 887 nM. For `O=C(Cc1ccc(F)cc1)NC1CCN(c2ccnc3cc(Cl)ccc23)C1` (stereo not given), the XC50 was 484 nM. `CN(c1cc(NC(=O)c2ccccc2)ccn1)C1CCN(Cc2cccc(F)c2)CC1` gave an XC50 of 738 nM. In the case of `NC(=O)c1ccccc1OCC(=O)Nc1cccc(-c2ccc(-c3nc4ccccc4[nH]3)cc2)c1`, the XC50 was 786 nM. Compound `Cc1nc(N)nc(N)c1OCc1ccc(Cl)c(Cl)c1` has an XC50 of 131 nM. Compound `COCCNCc1ccc(-c2cccc(CNC3CCN(Cc4ccccc4)CC3)c2)cc1` has an XC50 of 333 nM. `Fc1ccc2[nH]c(-c3ccc(-c4ccc(CNCC5CCCO5)cc4)s3)nc2c1` (stereo not given) gave an XC50 of 599 nM. Work on `Cc1cccc(Cn2c(Cc3ccccc3)nnc2Sc2ccc([N+](=O)[O-])c(C#N)c2)c1` yielded an XC50 of 1140 nM. With `O=[N+]([O-])c1cccc(S(=O)(=O)N2CCN(CC(O)COc3ccc(-c4ccccc4)cc3)CC2)c1` (stereo not given) the XC50 was 1360 nM. Compound `CC(C)(C)c1ccc(CNCC(C)(C)c2nc(-c3ccnc(N)n3)c(-c3ccc(Cl)c(O)c3)[nH]2)cc1` has an XC50 of 697 nM. Work on `CS(=O)(=O)CCCNCc1ccc(-c2cc3c(Nc4ccc(OCc5ccccc5)cc4)ncnc3cn2)o1` yielded an XC50 of 650 nM. `COc1ccccc1CNc1ncc(-c2ccsc2)c(-c2nccs2)n1` was tested, and the XC50 was 333 nM. In the case of `COc1ccc(OC)c(-c2ccc(O)c(CNCC(C)c3ccccc3)c2)c1` (stereo not given), the XC50 was 933 nM. With `CCCNC(=O)Nc1ccc(N(C)c2ccnc(NC3CC3)n2)cc1` the XC50 was 618 nM. `O=C(Cn1cnc2c(nnn2Cc2ccccc2F)c1=O)Nc1ccc2c(c1)OCCO2` was tested, and the XC50 was 949 nM. With `Cc1ccccc1OCCCc1c(C)nc(N)nc1N` the XC50 was 277 nM. In the case of `Cc1[nH]c(C)c(-c2ccc(Oc3cccc(C(F)(F)F)c3)cc2)c(=O)c1Br`, the XC50 was 7.69 nM. Work on `O=C(Nc1cccc(CN2CCN(C(=O)c3ccccc3)CC2)c1)c1ccco1` yielded an XC50 of 886 nM. For `CC(C)N1CCN(C(CN2CCN(CCCOc3cccc(F)c3)CC2)c2ccc(F)cc2)CC1` (stereo not given), the XC50 was 912 nM. With `CC1(C)N=C(N)N=C(N)C1c1ccc(Cl)c(Cl)c1` (stereo not given) the XC50 was 25.9 nM. For `COc1cccc(CCN(Cc2ccccc2-c2ccc(CNC3CC(C)(C)NC(C)(C)C3)cc2)C(=O)NC2CCCCC2)c1`, the XC50 was 932 nM. With `COc1cc(C2C(Oc3ccccc3)C(=O)N2Cc2ccc(F)cc2)cc(OC)c1OC` (stereo not given) the XC50 was 956 nM. In the case of `O=C(NC1CCN(c2ncc(C(F)(F)F)cc2Cl)CC1)c1cccs1`, the XC50 was 897 nM. In the case of `FC(F)(F)c1ccc2[nH]c(-c3ccc(-c4ccc(CNCCc5ccncc5)cc4)cc3)nc2c1`, the XC50 was 129 nM. For `Cc1cc(N[C@@H](Cc2ccccc2)C(=O)NCCCOC(C)C)nc(NCC2CCCCC2)n1`, the XC50 was 875 nM. In the case of `COc1ccccc1C1CN(CCNC(=O)c2nc(C)c[nH]2)Cc2ccccc2O1` (stereo not given), the XC50 was 797 nM. For `CCCCCn1c(Sc2ccc(C#N)c([N+](=O)[O-])c2)nnc1-c1ccccc1`, the XC50 was 860 nM. Compound `COc1ccccc1/C=C/C(=O)NC1CCC(CCN2CCc3ccc(-c4cc(C)no4)cc3CC2)CC1` (stereo not given) has an XC50 of 961 nM. In the case of `NC(=O)c1ccsc1NC(=O)CNC(c1ccc(F)cc1)c1cccs1` (stereo not given), the XC50 was 947 nM. For `CCOc1c(Br)cc(Br)cc1CNCCCCNc1nc2ccccc2[nH]1`, the XC50 was 394 nM. `COc1ccc(O)c(C(=O)c2cnc3c(c2)c(-c2ccc(F)cc2)c(C#N)c(=O)n3C)c1` gave an XC50 of 792 nM. For `N#Cc1cccc(NC(=O)c2cccc(S(=O)(=O)NC3CCN(CC4CCCCC4)C3)c2)c1` (stereo not given), the XC50 was 578 nM. `Cc1ccc(NC(=O)C2CCC2)cc1-c1ccc(C(=O)NCC2CC2)cc1` showed an XC50 of 742 nM. Work on `Cc1cccc2nc(-c3ccc(-c4ccc(CNCc5cnn(-c6ccccc6)n5)cc4)s3)[nH]c12` yielded an XC50 of 718 nM. `NC(=O)c1ccc(-c2ccc3ccnc(N)c3c2)cc1` gave an XC50 of 419 nM. Work on `COc1cccc(C(=O)Nc2ccc(Oc3ccc(Cl)cc3)cc2)c1` yielded an XC50 of 956 nM. For `Oc1cc(Nc2ccnc3ccc(I)cc23)c(F)cc1Cl`, the XC50 was 1230 nM. For `COC(=O)c1ccc(CC(C)NCC(O)c2cccc(OCc3ccccc3)c2)cc1` (stereo not given), the XC50 was 1160 nM. `Cc1cc(N[C@@H](Cc2ccccc2)C(=O)NCc2cccs2)nc(NCCc2ccccc2)n1` gave an XC50 of 790 nM. For `O=C(/C=C/c1ccc(Cl)c(Cl)c1)NC1CCC(N2CCC(c3c[nH]c4ccc(O)cc34)CC2)CC1` (stereo not given), the XC50 was 921 nM.
